Results on 11 compounds are retold here after US20240208992A1, “MACROCYCLES AS CFTR MODULATORS” (Idorsia Pharmaceuticals Ltd, priority 2021, published 2024).

For orientation: EC50 means the midpoint of the concentration-response curve. In general, Emax refers to the maximal effect, on the per cent scale that the assay sets.

In this assay the target is human F508del-CFTR (Homo sapiens, UniProt P13569, DEL508-508). The experiment in a line: F508del-CFTR cell surface expression (corrector activity), DiscoveRx ß-galactosidase complementation chemiluminescence assay in recombinant U2OS cell line.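 As to all read-outs here: U2OS cells co-expressing ProLink-tagged F508del-CFTR and a membrane-anchored enzyme acceptor, where more surface CFTR restores β-galactosidase activity measured by chemiluminescence.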 The following applies: U2OS cell line, 16h compound incubation; for EC50: EC50, F508del-CFTR cell surface expression, geomean values; for Emax: U2OS, in relation to the Emax of the corrector lumacaftor (=100%), arithmetic mean values.
Sequence of human F508del-CFTR (P13569 with tags, fused parts or gaps DEL508-508): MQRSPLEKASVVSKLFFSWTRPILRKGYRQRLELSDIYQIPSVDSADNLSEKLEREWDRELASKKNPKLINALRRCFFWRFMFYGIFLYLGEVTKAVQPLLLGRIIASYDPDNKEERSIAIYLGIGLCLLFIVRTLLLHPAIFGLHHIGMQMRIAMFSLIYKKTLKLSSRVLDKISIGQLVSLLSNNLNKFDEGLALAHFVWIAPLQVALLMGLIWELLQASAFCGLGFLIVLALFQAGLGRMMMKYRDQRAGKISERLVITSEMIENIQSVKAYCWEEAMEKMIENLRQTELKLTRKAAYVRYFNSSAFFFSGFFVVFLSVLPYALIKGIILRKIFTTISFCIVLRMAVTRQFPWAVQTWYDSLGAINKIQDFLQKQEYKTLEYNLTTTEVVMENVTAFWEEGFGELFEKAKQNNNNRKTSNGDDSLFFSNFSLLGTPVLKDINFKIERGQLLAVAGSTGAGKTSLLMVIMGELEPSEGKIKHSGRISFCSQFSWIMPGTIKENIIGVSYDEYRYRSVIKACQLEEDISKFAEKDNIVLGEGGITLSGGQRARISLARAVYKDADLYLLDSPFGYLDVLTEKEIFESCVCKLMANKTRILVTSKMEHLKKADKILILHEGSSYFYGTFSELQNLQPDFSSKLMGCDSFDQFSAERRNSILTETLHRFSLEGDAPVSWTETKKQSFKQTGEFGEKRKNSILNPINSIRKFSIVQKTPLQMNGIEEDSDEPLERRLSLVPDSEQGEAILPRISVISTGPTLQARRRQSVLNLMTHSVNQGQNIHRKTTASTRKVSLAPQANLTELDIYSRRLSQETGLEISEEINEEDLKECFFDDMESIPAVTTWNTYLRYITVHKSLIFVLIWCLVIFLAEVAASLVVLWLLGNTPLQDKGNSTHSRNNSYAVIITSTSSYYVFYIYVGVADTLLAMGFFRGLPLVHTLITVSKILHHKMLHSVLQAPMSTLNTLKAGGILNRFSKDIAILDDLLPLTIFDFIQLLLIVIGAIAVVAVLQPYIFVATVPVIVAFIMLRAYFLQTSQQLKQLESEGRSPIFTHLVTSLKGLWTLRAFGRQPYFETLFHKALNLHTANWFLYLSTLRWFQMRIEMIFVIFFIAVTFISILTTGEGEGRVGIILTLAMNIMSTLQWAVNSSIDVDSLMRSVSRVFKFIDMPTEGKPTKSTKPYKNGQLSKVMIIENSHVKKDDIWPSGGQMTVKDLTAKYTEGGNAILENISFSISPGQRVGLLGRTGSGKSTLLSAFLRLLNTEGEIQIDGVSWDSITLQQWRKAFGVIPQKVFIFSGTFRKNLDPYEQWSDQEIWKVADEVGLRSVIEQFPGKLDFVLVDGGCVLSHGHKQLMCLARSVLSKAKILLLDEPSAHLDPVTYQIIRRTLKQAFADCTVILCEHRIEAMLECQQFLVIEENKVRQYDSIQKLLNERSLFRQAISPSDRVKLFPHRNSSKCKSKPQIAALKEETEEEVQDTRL

With `CC(C)C[C@H]1C(=O)N(C)C2(CC2)C(=O)N[C@H](Cc2ccccc2)COc2cnc3ccccc3c2C(=O)N[C@H](C(=O)NCC(F)(F)c2ccccc2)CC(=O)N1C` [Example 145, (3′S,7′S,13′R)-13′-benzyl-N-(2,2-difluoro-2-phenylethyl)-7′-isobutyl-6′,9′-dimethyl-1′,5′,8′,11′-tetraoxo-2′,3′,4′,5′,6′,7′,8′,9′,11′,12′,13′,14′-dodecahydro-1′H-spiro[cyclopropane-1,10′-[1]oxa[4,7,10,14]tetraazacycloheptadecino[17,16-c]quinoline]-3′-carboxamide], the EC50 turned out to be 309 nM and the Emax came out at 107%.

With `Cc1noc(CCNC(=O)[C@@H]2CC(=O)N(C)[C@@H](CC(C)C)C(=O)N(C)C3(CC3)C(=O)N[C@H](Cc3ccccc3)COc3cnc4ccc(F)cc4c3C(=O)N2)n1` [Example 146, (3′S,7′S,13′R)-13′-benzyl-20′-fluoro-7′-isobutyl-6′,9′-dimethyl-N-(2-(3-methyl-1,2,4-oxadiazol-5-yl)ethyl)-1′,5′,8′,11′-tetraoxo-2′,3′,4′,5′,6′,7′,8′,9′,11′,12′,13′,14′-dodecahydro-1′H-spiro[cyclopropane-1,10′-[1]oxa[4,7,10,14]tetraazacycloheptadecino[17,16-c]quinoline]-3′-carboxamide], the EC50 stood at 247 nM and the Emax turned out to be 318%.

On to `Cc1cc(CCNC(=O)[C@@H]2CC(=O)N(C)[C@@H](CC(C)C)C(=O)N(C)C3(CC3)C(=O)N[C@H](Cc3ccccc3)COc3cnc4ccc(F)cc4c3C(=O)N2)on1` [Example 147, (3′S,7′S,13′R)-13′-benzyl-20′-fluoro-7′-isobutyl-6′,9′-dimethyl-N-(2-(3-methylisoxazol-5-yl)ethyl)-1′,5′,8′,11′-tetraoxo-2′,3′,4′,5′,6′,7′,8′,9′,11′,12′,13′,14′-dodecahydro-1′H-spiro[cyclopropane-1,10′-[1]oxa[4,7,10,14]tetraazacycloheptadecino[17,16-c]quinoline]-3′-carboxamide], for which the EC50 stood at 270 nM and the Emax came to 339%.

As for `COc1cc2c(cc1OC)C(=O)N[C@H](C(=O)NCCc1ccc3c(c1)OCCC3)CC(=O)N(C)[C@@H](CC(C)C)C(=O)N(C)CC(=O)N[C@H](Cc1ccccc1)CO2` [Example 148, (3R,9S,13S)-3-benzyl-N-(2-(chroman-7-yl)ethyl)-9-isobutyl-17,18-dimethoxy-7,10-dimethyl-5,8,11,15-tetraoxo-2,3,4,5,6,7,8,9,10,11,12,13,14,15-tetradecahydrobenzo[p][1]oxa[4,7,10,14]tetraazacycloheptadecine-13-carboxamide], the EC50 was 811 nM and the Emax amounted to 198%.

On to `COc1cccc2c1C(=O)N[C@H](C(=O)NCCc1ccc3c(c1)OCCO3)CC(=O)N(C)[C@@H](CC(C)C)C(=O)N(CCC1CCCCC1)CC(=O)N[C@H](Cc1ccccc1)CO2` [Example 149, (3R,9S,13S)-3-benzyl-7-(2-cyclohexylethyl)-N-(2-(2,3-dihydrobenzo[b][1,4]dioxin-6-yl)ethyl)-9-isobutyl-16-methoxy-10-methyl-5,8,11,15-tetraoxo-2,3,4,5,6,7,8,9,10,11,12,13,14,15-tetradecahydrobenzo[p][1]oxa[4,7,10,14]tetraazacycloheptadecine-13-carboxamide], for which the EC50 turned out to be 191 nM and the Emax is 259%.

For `COc1cccc2c1C(=O)N[C@H](C(=O)NCCc1cccc(OC(F)F)c1)CC(=O)N(C)[C@@H](CC(C)C)C(=O)N(CCC1CCCCC1)CC(=O)N[C@H](Cc1ccccc1)CO2` [Example 150, (3R,9S,13S)-3-benzyl-7-(2-cyclohexylethyl)-N-(3-(difluoromethoxy)phenethyl)-9-isobutyl-16-methoxy-10-methyl-5,8,11,15-tetraoxo-2,3,4,5,6,7,8,9,10,11,12,13,14,15-tetradecahydrobenzo[p][1]oxa[4,7,10,14]tetraazacycloheptadecine-13-carboxamide], the EC50 is 151 nM and the Emax was found to be 130%.

For `COc1ccc(CCNC(=O)[C@@H]2CC(=O)N(C)[C@@H](CC(C)C)C(=O)N(C)CC(=O)N[C@H](Cc3ccccc3)COc3cc4c(cc3C(=O)N2)OCO4)cc1` [Example 153, (7R,13S,17S)-7-benzyl-13-isobutyl-N-(4-methoxyphenethyl)-11,14-dimethyl-9,12,15,19-tetraoxo-6,7,8,9,10,11,12,13,14,15,16,17,18,19-tetradecahydro-[1,3]dioxolo[4′,5′:4,5]benzo[1,2-p][1]oxa[4,7,10,14]tetraazacycloheptadecine-17-carboxamide], the concentration giving a half-maximal response (EC50) amounted to 460 nM and the Emax is 115%.

`CC(C)C[C@H]1C(=O)N(CCC2CCOCC2)CC(=O)N[C@H](Cc2ccccc2)COc2cc3c(cc2C(=O)N[C@H](C(=O)NCCc2ccc4c(c2)OCO4)CC(=O)N1C)OCO3` [Example 154, (7R,13S,17S)-N-(2-(benzo[d][1,3]dioxol-5-yl)ethyl)-7-benzyl-13-isobutyl-14-methyl-9,12,15,19-tetraoxo-11-(2-(tetrahydro-2H-pyran-4-yl)ethyl)-6,7,8,9,10,11,12,13,14,15,16,17,18,19-tetradecahydro-[1,3]dioxolo[4′,5′:4,5]benzo[1,2-p][1]oxa[4,7,10,14]tetraazacycloheptadecine-17-carboxamide]: the EC50 came to 398 nM and the Emax stood at 102%.

Regarding `COc1cc(CCNC(=O)[C@@H]2CC(=O)N(C)[C@@H](CC(C)C)C(=O)N(CCC3CCCCC3)CC(=O)N[C@H](Cc3ccccc3)COc3cccc(OC)c3C(=O)N2)ccn1` [Example 158, (3R,9S,13S)-3-benzyl-7-(2-cyclohexylethyl)-9-isobutyl-16-methoxy-N-(2-(2-methoxypyridin-4-yl)ethyl)-10-methyl-5,8,11,15-tetraoxo-2,3,4,5,6,7,8,9,10,11,12,13,14,15-tetradecahydrobenzo[p][1]oxa[4,7,10,14]tetraazacycloheptadecine-13-carboxamide], the EC50 was determined as 315 nM and the Emax amounted to 169%.

In the case of `COc1cc2c(cc1OC)C(=O)N[C@H](C(=O)NCCc1ccc3c(c1)OCO3)CC(=O)N(C)[C@@H](CC(C)C)C(=O)N(C[C@H]1CCCCO1)CC(=O)N[C@H](Cc1ccccc1)CO2` [Example 159, (3R,9S,13S)-N-(2-(benzo[d][1,3]dioxol-5-yl)ethyl)-3-benzyl-9-isobutyl-17,18-dimethoxy-10-methyl-5,8,11,15-tetraoxo-7-(((R)-tetrahydro-2H-pyran-2-yl)methyl)-2,3,4,5,6,7,8,9,10,11,12,13,14,15-tetradecahydrobenzo[p][1]oxa[4,7,10,14]tetraazacycloheptadecine-13-carboxamide], the EC50 amounted to 385 nM and the Emax was found to be 100%.

`COc1cc2c(cc1OC)C(=O)N[C@H](C(=O)NCCc1ccc3c(c1)OCO3)CC(=O)N(C)[C@@H](CC(C)C)C(=O)N(C[C@@H]1CCCCO1)CC(=O)N[C@H](Cc1ccccc1)CO2` [Example 160, (3R,9S,13S)-N-(2-(benzo[d][1,3]dioxol-5-yl)ethyl)-3-benzyl-9-isobutyl-17,18-dimethoxy-10-methyl-5,8,11,15-tetraoxo-7-(((S)-tetrahydro-2H-pyran-2-yl)methyl)-2,3,4,5,6,7,8,9,10,11,12,13,14,15-tetradecahydrobenzo[p][1]oxa[4,7,10,14]tetraazacycloheptadecine-13-carboxamide]: the EC50 came to 224 nM and the Emax was determined as 116%.
